This note sets out measurements from PubChem BioAssay AID2060361 (Molecular Pharmacology Branch, DTP, NCI, 2025).

pIC50: −log10 of the molar value. Values joined by “and” are separate entries in the source; they are usually repeats but may differ in a detail not shown here. Equal values may be shown once.

The subject of the assay is 463943-066-T-J2-PDC tumor spheroids with HUVEC/MSC, viability. The assay is described as follows: Anticancer human tumor 463943-066-T-J2-PDC patient-derived colon adenocarcinoma cell line growth inhibition [TAK]. The settings on record: for viability, T/C: stronger effect = lower value. The source says: Combinatorial screen of targeted agents with TAK-243 and ipatasertib in multi-cell type tumor spheroids
A high-throughput screen of multi-cell type tumor spheroids was designed to identify active combinations of targeted small molecules and TAK-243 or ipatasertib. Complex spheroids include a stromal component modeled by human endothelial cells (HUVEC) and fibroblasts modeled by human mesenchymal stem cells (MSCs). The concentration ranges selected for each drug and investigational agent were based upon clinically achievable concentrations if the clinical Cmax of the agent was known.
Compounds. The drugs and investigational agents: TAK-243 (785004), ipatasertib (767898), everolimus (733504), selumetinib (741078), bortezomib (756655), trametinib (758246), ixazomib (758254), vemurafenib (761431), dabrafenib (764134), sapanisertib (764658), alpelisib (765974), and copanlisib (816437), were obtained from the National Cancer Institute (NCI) Developmental Therapeutics Program Chemical Repository. The FDA-approved anticancer drug set is available from the NCI Developmental Therapeutics Program. […] The stock solutions were prepared in dimethyl sulfoxide (DMSO, Sigma-Aldrich, St. Louis, MO, cat. D2650) at 800-fold the tested concentration and stored at -70 degrees C prior to their use. All drugs and investigational agents were tested over a range starting from a high concentration at or near the clinical Cmax and decreasing in half-log increments. If the clinical Cmax for an agent had not been determined, the highest concentration tested was 10 microM.
NCI60 Cell Culture. NCI60 cell lines were obtained from the NCI Developmental Therapeutics Program Tumor Repository. For each lot of cells, the Repository performed Applied Biosystems AmpFLSTR Identifiler testing with PCR amplification to confirm consistency with the published Identifier STR profile for each cell line. Cells were kept in continuous culture for no more than 20 passages. The optimal seeding densities for each of the cell lines at each time point assessed were determined prior to performing the concentration response studies. Briefly, the NCI60 human tumor lines were grown as monolayers in RPMI 1640 medium supplemented with 10% FBS and 2 mmol/L L-glutamine.
An additional 2 lines were from the NCI60 cell line panel including melanomas, MALME-3M and SK-MEL-2. Pooled donor human umbilical vein endothelial cells (HUVEC, Lonza, cat. CC-2519) and human mesenchymal stem cells (hMSC, Lonza, cat. PT-2501) were purchased from Lonza (Walkersville, MD).
PDMR cell lines were grown in complete medium (DC medium): Dulbecco's modified Eagle's medium (DMEM)/F12 supplemented with 5% fetal bovine serum (FBS), 2 mM L-glutamine, 100 U/mL penicillin and 100 µg/ml streptomycin, 0.4 µg/ml hydrocortisone, 10 ng/ml epidermal growth factor (EGF) recombinant human protein, 24 µg/mL adenine, and 0.1 mg/mL primocin. During culture from frozen stock vials, PDMR cells were cultured in the same medium containing 10 µM Y-27632 (see Table 3). The PDCs were cultured in complete DMEM/F12 media without 10 microM Y-27632 dihydrochloride for at least two passages prior to the screen. The pooled donor HUVEC and hMSC were cultured in endothelial cell growth medium 2 (PromoCell, Heidelberg, Germany, cat. C-22011) and mesenchymal stem cell growth medium 2 (PromoCell, cat. C-28009), respectively. For all experiments, HUVEC and hMSC were used at passages </=5.
For the pre-screen, cell seeding densities were determined from a titration spanning the range from 5,000 to 313 cells per well. The mct-spheroids including 60% malignant cells, 25% HUVEC and 15% MSC dispensed as a mixture into U-bottom Ultra-Low Attachment 384-well plates (Corning, NY)
High-throughput Drug Combination Screening.
Prior to their inoculation into 384-well plates, malignant cells, HUVEC, and hMSC were removed from T flasks using TrypLE express (Thermo Fisher Scientific, cat. 12605036) and harvested by centrifugation for 5 min at 233 x g. […]
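Also: spheroids exposed to drugs for seven days.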

One may read the viability, T/C as the ratio of treated to control. A word on the pIC50: it is −log10 of the IC50, conventionally taken in molar units. On to `CC(C)(C)c1nc(-c2cccc(NS(=O)(=O)c3c(F)cccc3F)c2F)c(-c2ccnc(N)n2)s1`, for which the viability, T/C is, setting by setting: (compound 0.0316 µM) 116% and 108%; (compound 0.1 µM) 110% and 108%; (compound 0.316 µM) 113% and 103%; (compound 1 µM) 112% and 109%; (compound 3.16 µM) 109% and 116%; (compound 10 µM) 104% and 107%. For the same compound, for the setting “curve of compound”, the pIC50 was less than 5.00.

For `Cn1cnc2c(F)c(Nc3ccc(Br)cc3Cl)c(C(=O)NOCCO)cc21`, the viability, T/C (compound 0.00949 µM) is 101% and 106%; the viability, T/C (compound 0.03 µM) is 99.1% and 108%; the viability, T/C (compound 0.0949 µM) is 77.1% and 84%; the viability, T/C (compound 0.3 µM) is 85.9% and 76%; the viability, T/C (compound 0.949 µM) was 64.1% and 78.2%; the viability, T/C (compound 3 µM) is 62.4% and 57.4%. For the setting “curve of compound”, the pIC50 was less than 5.52.

As for `Cc1nc(NC(=O)N2CCCC2C(N)=O)sc1-c1ccnc(C(C)(C)C(F)(F)F)c1` (stereo unspecified) + CC(C)NCC(C(=O)N1CCN(c2ncnc3c2C(C)CC3O)CC1)c1ccc(Cl)cc1, the pIC50 runs as follows: (curve of first compound, second compound 0.3 µM) less than 5.00; (curve of first compound, second compound 0.949 µM) less than 5.00; (curve of first compound, second compound 3 µM) less than 5.00; (curve of first compound, second compound 9.49 µM) less than 5.00; (curve of first compound, second compound 30 µM) less than 5.00. Also, the viability, T/C by setting is: (second compound 0.3 µM, first compound 0.0316 µM) 106%; (second compound 0.3 µM, first compound 0.1 µM) 99.8%; (second compound 0.3 µM, first compound 0.316 µM) 105%; (second compound 0.3 µM, first compound 1 µM) 87.8%; (second compound 0.3 µM, first compound 3.16 µM) 81%; (second compound 0.3 µM, first compound 10 µM) 79.3%. Moreover, the viability, T/C (second compound 0.949 µM, first compound 0.0316 µM) is 104%; the viability, T/C (second compound 0.949 µM, first compound 0.1 µM) was 89.9%; the viability, T/C (second compound 0.949 µM, first compound 0.316 µM) was 91.8%; the viability, T/C (second compound 0.949 µM, first compound 1 µM) was 89.2%; the viability, T/C (second compound 0.949 µM, first compound 3.16 µM) was 78.4%; the viability, T/C (second compound 0.949 µM, first compound 10 µM) is 78.1%. Also, the viability, T/C runs as follows: (second compound 3 µM, first compound 0.0316 µM) 98%; (second compound 3 µM, first compound 0.1 µM) 100%; (second compound 3 µM, first compound 0.316 µM) 88.4%; (second compound 3 µM, first compound 1 µM) 88.8%; (second compound 3 µM, first compound 3.16 µM) 81.1%; (second compound 3 µM, first compound 10 µM) 75%. Further, the viability, T/C by setting is: (second compound 9.49 µM, first compound 0.0316 µM) 89.6%; (second compound 9.49 µM, first compound 0.1 µM) 95.3%; (second compound 9.49 µM, first compound 0.316 µM) 90.7%; (second compound 9.49 µM, first compound 1 µM) 86.9%; (second compound 9.49 µM, first compound 3.16 µM) 79.5%; (second compound 9.49 µM, first compound 10 µM) 80.7%. Further, the viability, T/C was 92.7% (second compound 30 µM, first compound 0.0316 µM); 94.4% (second compound 30 µM, first compound 0.1 µM); 88.2% (second compound 30 µM, first compound 0.316 µM); 92.8% (second compound 30 µM, first compound 1 µM); 90.5% (second compound 30 µM, first compound 3.16 µM); 76.6% (second compound 30 µM, first compound 10 µM).

Take `COC1CC2CCC(C)C(O)(O2)C(=O)C(=O)N2CCCCC2C(=O)OC(C(C)CC2CCC(OCCO)C(OC)C2)CC(=O)C(C)C=C(C)C(O)C(OC)C(=O)C(C)CC(C)C=CC=CC=C1C` (stereo unspecified): the viability, T/C reads like this: (compound 0.000316 µM) 101% and 107%; (compound 0.001 µM) 91% and 91.9%; (compound 0.00316 µM) 87.1% and 85.7%; (compound 0.01 µM) 83.7% and 89.1%; (compound 0.0316 µM) 85.6% and 91.5%; (compound 0.1 µM) 76.8% and 86%. For the same compound, the pIC50 (curve of compound) is less than 7.00.
